The target of the experiment is T1, phosphatidylinositol 3-kinase gamma isoform (p110?), recombinant GST-p110? (Homo sapiens, UniProt P48736).
T1 construct: made in house; host or cells: Sf9 (Spodoptera frugiperda) insect cells, baculovirus
Nature of the experiment: PI3K gamma in vitro kinase assay (Scintillation Proximity Assay, phosphate transfer from ATP to phosphatidylinositol). The class given is biochemical. The note with it: for IC50: gamma isoform, fluorinated Example compound. An excerpt: Compounds of formula I and their pharmaceutically acceptable salts, hereinafter referred to alternatively as agents of the invention, are useful as pharmaceuticals.
Baculovirus expressing different fragments of PI3K? fused to GST have been previously described by Stoyanova, S., Bulgarelli-Leva, G., Kirsch, C., Hanck, T., Klinger, R., Wetzker, R., Wymann, M. P. (1997) Lipid- and protein kinase activities of G protein-coupled PI 3-kinase g: structure-activity analysis and interactions with wortmannin. Biochem. J., 324:489. Residues 38-1102 of human PI3K? are subcloned into the BamH1 and EcoR1 sites of the transfer vector pAcG2T (Pharmingen) to create a GST-PI3K? lacking the first 37 residues of PI3K?. To express the recombinant protein, Sf9 (Spodoptera frugiperda 9) insect cells are routinely maintained at densities between 3×10^5 and 3×10^6 cells/ml in serum containing TNMFH medium (Sigma). Sf9 cells, at a density of 2×10^6 are infected with human GST-PI3K[…] 34 baculovirus at a multiplicity of infection (m.o.i.) of 1 for 72 hours. The infected cells are harvested by centrifugation at 1400 g for 4 minutes at 4° C. and the cell pellets are frozen at −80° C. Both Sf9 and Sf21 cells work equally well. Sf9 cells (1×10^9) are resuspended in 100 ml cold (4° C.) lysis buffer (50 mM Tris-HCl pH 7.5, 1% Triton X-100, 150 mM NaCl, 1 mM NaF, 2 mM DTT and protease inhibitors. Cells are incubated on ice for 30 minutes then centrifuged at 15000 g for 20 minutes at 4° C. Purification of the supernatant sample is carried out at 4° C. by affinity chromatography using SEPHAROSE™ agarose gel beads coupled to glutathione (from Amersham Pharmacia Biotech). A cell lysate/GST resin ratio of 50:1 is used. The GST resin is firstly pre-rinsed to remove ethanol preservative and then equilibrated with lysis buffer. Cell lysate (supernatant) is added (usually as 50 ml lysate to 1 ml GST resin in 50 ml tubes) and gently rotated on a mixer at 4° C. for 2-3 hours. The unbound flow through sample is collected by centrifugation at 1000 g for 5 minutes at 4° C. using a DENLEY™ centrifuge. The 1 ml GST resin containing bound material is transferred to a 15 ml FALCON™ centrifuge tube for subsequent washing and elution steps. Firstly a series of 3 cycles of washings (mixing by gentle inversion) is performed with 15 ml ice cold wash Buffer A (50 mM Tris-HCl pH 7.5, 1% Triton X-100, 2 mM DTT) interspersed with centrifugation at 1000 g for 5 minutes at 4° C. A final single wash step is performed with 15 ml ice cold wash Buffer B (50 mM Tris-HCl pH 7.5, 2 mM DTT) and then centrifuged at 1000 g for 5 minutes at 4° C. The washed GST resin is finally eluted with 4 cycles of 1 ml ice cold elution buffer (50 mM Tris-HCl pH 7.5, 10 mM reduced glutathione, 2 mM DTT, 150 mM NaCl, 1 mM NaF, 50% ethylene glycol and protease inhibitors) interspersed with centrifugation at 1000 g for 5 minutes at 4° C. Samples are aliquoted and stored at −20° C.
An in vitro kinase assay was established that measures the transfer of the terminal phosphate of adenosine triphosphate to phosphatidylinositol. The kinase reaction is performed in a white 96 well microtitre plate as a Scintillation Proximity Assay. Each well contains 10 μl test compound in 5% dimethylsulphoxide and 20 μl assay mix (40 mM Tris, 200 mM NaCl, 2 mM ethyleneglycol-aminoethyl-tetraacetic acid (EGTA), 15 μg/ml phosphatidylinositol, 12.5 μM adenosine triphosphate (ATP), 25 mM MgCl2, 0.1 μCi [^33P]ATP). […]

T1 sequence (P48736 38-1102): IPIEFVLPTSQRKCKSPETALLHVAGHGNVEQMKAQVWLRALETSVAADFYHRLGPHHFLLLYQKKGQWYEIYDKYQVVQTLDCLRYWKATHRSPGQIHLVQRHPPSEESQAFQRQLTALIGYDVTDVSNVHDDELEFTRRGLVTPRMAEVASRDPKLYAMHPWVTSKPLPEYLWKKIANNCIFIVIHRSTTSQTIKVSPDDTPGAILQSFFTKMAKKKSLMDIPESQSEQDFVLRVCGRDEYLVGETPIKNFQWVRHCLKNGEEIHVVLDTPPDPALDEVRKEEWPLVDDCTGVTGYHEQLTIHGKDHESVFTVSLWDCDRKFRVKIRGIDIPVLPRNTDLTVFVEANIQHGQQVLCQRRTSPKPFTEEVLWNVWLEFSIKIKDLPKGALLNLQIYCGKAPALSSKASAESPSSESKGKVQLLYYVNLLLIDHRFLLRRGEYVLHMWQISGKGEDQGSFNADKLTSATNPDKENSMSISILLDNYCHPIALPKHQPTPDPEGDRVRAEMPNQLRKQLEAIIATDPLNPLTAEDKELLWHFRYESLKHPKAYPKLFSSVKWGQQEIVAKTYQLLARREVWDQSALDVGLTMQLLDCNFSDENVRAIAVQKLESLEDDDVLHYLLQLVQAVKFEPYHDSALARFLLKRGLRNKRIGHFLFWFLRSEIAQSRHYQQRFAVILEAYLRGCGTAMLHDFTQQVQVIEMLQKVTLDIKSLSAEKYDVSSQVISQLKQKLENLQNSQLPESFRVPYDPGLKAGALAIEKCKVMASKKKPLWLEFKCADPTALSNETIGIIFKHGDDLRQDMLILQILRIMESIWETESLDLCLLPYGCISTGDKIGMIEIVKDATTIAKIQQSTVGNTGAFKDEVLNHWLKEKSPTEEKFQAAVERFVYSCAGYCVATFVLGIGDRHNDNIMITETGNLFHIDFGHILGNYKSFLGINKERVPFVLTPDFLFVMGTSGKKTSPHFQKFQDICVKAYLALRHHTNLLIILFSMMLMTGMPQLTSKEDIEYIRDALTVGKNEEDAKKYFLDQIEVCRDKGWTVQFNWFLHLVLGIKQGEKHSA

Broadly, the IC50 is the point on the concentration scale where inhibition reaches its midpoint. For `Cc1nc(NC(=O)NCCc2nnn(CCF)n2)sc1-c1ccc(S(C)(=O)=O)c(F)c1` [compound 8, 1-{2-[2-(2-Fluoro-ethyl)-2H-tetrazol-5-yl]-ethyl}-3-[5-(3-fluoro-4-methanesulfonyl-phenyl)-4-methyl-thiazol-2-yl]-urea], the IC50 worked out at 0.01 µM. Also, the “increase in activity over the corresponding compound described in WO0521519” value (fold, from IC50 (?) values of the table) is recorded as “four-fold”. Turning to `Cc1nc(NC(=O)NCCC(=O)NCC(F)F)sc1-c1ccc(S(C)(=O)=O)c(F)c1` [compound 2, N-(2,2-Difluoroethyl)-3-{3-[5-(3-fluoro-4-methanesulfonyl-phenyl)-4-methyl-thiazol-2-yl]-ureido}-propionamide], the IC50 is 0.028 µM. With `Cc1nc(NC(=O)NCCc2cn(CCF)cn2)sc1-c1ccc(S(C)(=O)=O)c(F)c1` [compound 7, 1-{2-[1-(2-Fluoro-ethyl)-1H-imidazol-4-yl]-ethyl}-3-[5-(3-fluoro-4-methanesulfonyl-phenyl)-4-methyl-thiazol-2-yl]-urea], the IC50 came to 0.028 µM.

Consider “N-(2-Fluoro-1,1-dimethyl-ethyl-3-{3-[5-(3-fluoro-4-methanesulfonyl-phenyl)-4-methyl-thiazol-2-yl]-ureido}-propionamide [compound 1]”, for which the half-maximal inhibitory concentration (IC50) amounted to 0.046 µM.
